Experimental data published in US20200323790A1, “METHOD FOR TREATMENT OF ACUTE LUNG INJURY BY USE OF KIRENOL” (CHUNG SHAN MEDICAL UNIVERSITY, priority 2019, published 2020).

What was measured:
[1] = system: BALB/c mice; assay: Histopathology (H&E) of lung in LPS-induced ALI mice; assay type: in vivo; settings: LPS 100 μg IT; kirenol 3, 10, 30 mg/kg IP or dexamethasone 1 mg/kg IP 30 min before LPS; 6 h after LPS; FIG. 1
Procedure: (§1) BALB/c mice (5-7 weeks old) are obtained from the National Laboratory Animal Center (NLAC) and maintained in the laboratory for a week in order to adapt to the environment. Then experiments are carried out as follows. The mice are divided into three groups. The control group: mice in the group are injected with normal saline by intratracheal injection (IT). The LPS stimulated group: mice in the group are treated with a 50 μL solution containing 100 μg of lipopolysaccharide (LPS) by IT for inducing ALI. The kirenol group: mice are given an intraperitoneal injection (IP) of 3 mg/kg, 10 mg/kg, and 30 mg/kg of kirenol respectively. After 30 minutes, each mouse is treated with 100 μg of LPS by IT. The dexamethasone group: mice are dosed with 1 mg/kg of dexamethasone by IP and then treated with 100 μg of LPS by IT after 30 minutes.
(§2) The mice in the respective group are killed 6 hours after LPS administration. Then use bronchoalveolar lavage (BAL) to get (Bronchoalveolar lavage fluid (BALF). And perform differential blood count, detect neutrophil activity and measure protein content in BALF. The lung tissue of the mice is used in histopathology examination, analysis of pulmonary edema, lipid peroxidation assay, and antioxidant activity analysis.
Kirenol used is obtained from ChemFaces (Catalog No. CFN98867) dissolved in Dimethyl sulfoxide (DMSO). […]

[2] = system: BALB/c mice; assay: Lung tissue wet/dry ratio (lung edema) in LPS-induced ALI mice; assay type: in vivo; settings: kirenol 3, 10, 30 mg/kg IP, FIG. 2
Procedure: as §1, §2
The mice are killed and lung tissue is obtained. […] Thereby the wet/dry ratio of the lung tissue is calculated by dividing the wet weight by the dry weight.

[3] = system: BALB/c mice; assay: Protein content in BALF (Bradford assay) in LPS-induced ALI mice; assay type: in vivo; settings: kirenol 3, 10, 30 mg/kg IP, FIG. 3
Procedure: as §1
(§3) The mice in the respective group are killed 6 hours after LPS administration. […]
(§4) Polymorphonuclear leucocytes and protein in the capillary flow into the alveoli while alveolar capillary barrier being damaged. Thus the integrity of alveolar capillary barrier can be evaluated by analysis of the content of polymorphonuclear leucocytes and protein in the BALF. […]

[4] = system: BALB/c mice; assay: Neutrophils in BALF (Giemsa stain) in LPS-induced ALI mice; assay type: in vivo; settings: kirenol 3, 10, 30 mg/kg IP; vs LPS stimulated group; FIG. 4
Procedure: as §1, §3, §4

[5] = system: BALB/c mice; assay: Lipid peroxidation (malondialdehyde, MDA) in lung of LPS-induced ALI mice; assay type: in vivo; settings: kirenol 3, 10, 30 mg/kg IP; vs LPS stimulated group; FIG. 5
Procedure: as §1, §3
For evaluation of lung tissue damage, the amount of malondialdehyde (MDA), the final product of lipid peroxidation in lung, is measured. […] Lastly absorbance of the mixed solution is measured at 532 nm.

[6] = system: superoxide dismutase (SOD); assay: Antioxidant enzyme activity in lung tissue: SOD; assay type: in vivo, mice; settings: kirenol 3, 10, 30 mg/kg IP; vs LPS stimulated group; FIG. 6
Procedure: as §1, §2
(§5) During acute lung injury, the increasing pulmonary oxidative stress easily leads to lung tissue damage. […]

[7] = system: catalase (CAT); assay: Antioxidant enzyme activity in lung tissue: CAT; assay type: in vivo, mice; settings: kirenol 3, 10, 30 mg/kg IP; vs LPS stimulated group; FIG. 7
Procedure: as §1, §2, §5

[8] = system: glutathione peroxidase (GSH); assay: Antioxidant enzyme activity in lung tissue: glutathione peroxidase; assay type: in vivo, mice; settings: kirenol 3, 10, 30 mg/kg IP; vs LPS stimulated group; FIG. 8
Procedure: as §1, §2, §5

`C[C@@]1(CO)C[C@@H](O)C[C@@]2(C)[C@@H]3CC[C@](C)([C@@H](O)CO)C=C3CC[C@H]12` [Kirenol] was tested, and the “hyaline membrane formation in lung” value [1] was “reduces hyaline membrane formation in lung and immune cell infiltration induced by LPS in a dose dependent manner”, the “immune cell infiltration in lung” value [1] was “reduces hyaline membrane formation in lung and immune cell infiltration induced by LPS in a dose dependent manner” and the “lung edema induced by LPS” value [2] was “improves lung edema induced by LPS in a dose dependent fashion”. For the same compound, the “wet/dry ratio of the lung tissue” value ([2]; vs LPS stimulated group) was “reduced”, the “integrity of alveolar capillary barrier” value [3] was “prevents damage to the integrity of alveolar capillary barrier caused by LPS in a dose dependent way” and the “protein content in BALF” value ([3]; vs LPS stimulated group) was “lowered”. The “number of neutrophils / neutrophil infiltration in alveolar cavity” value [4] was “reduces neutrophil infiltration in alveolar cavity caused by LPS in a dose dependent manner”, the “lipid peroxidation in lung (MDA)” value [5] was “prevents lipid peroxidation caused by LPS in a dose dependent manner” and the “activity of SOD in lung” value [6] was “increased in a dose dependent manner”. The “activity of CAT in lung” value [7] was “increased in a dose dependent manner” and the “activity of GSH (glutathione peroxidase) in lung” value [8] was “increased in a dose dependent manner”.
